{"source": "patent US20200157151A1", "about": "“PEPTIDE COMPOUNDS, CONJUGATE COMPOUNDS AND USES THEREOF FOR TREATING INFLAMMATORY DISEASES” (TRANSFERT PLUS, S.E.C., priority 2017, published 2020)", "key": {"[1]": {"system": "TNF-α-induced IκB phosphorylation in human SKOV3 ovarian cancer cells", "assay": "Inhibition of TNF-α-induced IκB phosphorylation in SKOV3 cells", "type": "cell-based", "details": "24 h pre-treatment, 100 ng/mL TNF-α 5 min, SKOV3, FIG. 10", "text": "FIG. 10A) Immunodetection of IκB phosphorylation by TNF-α is shown.\n(§1) FIGS. 9 and 10 are other examples of the Curcumin conjugate (KBC-201)'s effect on the TNF-α-induced signaling pathways in two other cancer cell models."}, "Sortilin receptor": {"biological_target": "T1, Sortilin receptor (Homo sapiens, UniProt Q99523)", "T1 construct": "Sortilin-deficient (siSortilin) HT-29 colorectal cancer cells; endogenous in cells; host or cells: HT-29 human colorectal cancer cells", "T1 sequence (Q99523 78-831)": "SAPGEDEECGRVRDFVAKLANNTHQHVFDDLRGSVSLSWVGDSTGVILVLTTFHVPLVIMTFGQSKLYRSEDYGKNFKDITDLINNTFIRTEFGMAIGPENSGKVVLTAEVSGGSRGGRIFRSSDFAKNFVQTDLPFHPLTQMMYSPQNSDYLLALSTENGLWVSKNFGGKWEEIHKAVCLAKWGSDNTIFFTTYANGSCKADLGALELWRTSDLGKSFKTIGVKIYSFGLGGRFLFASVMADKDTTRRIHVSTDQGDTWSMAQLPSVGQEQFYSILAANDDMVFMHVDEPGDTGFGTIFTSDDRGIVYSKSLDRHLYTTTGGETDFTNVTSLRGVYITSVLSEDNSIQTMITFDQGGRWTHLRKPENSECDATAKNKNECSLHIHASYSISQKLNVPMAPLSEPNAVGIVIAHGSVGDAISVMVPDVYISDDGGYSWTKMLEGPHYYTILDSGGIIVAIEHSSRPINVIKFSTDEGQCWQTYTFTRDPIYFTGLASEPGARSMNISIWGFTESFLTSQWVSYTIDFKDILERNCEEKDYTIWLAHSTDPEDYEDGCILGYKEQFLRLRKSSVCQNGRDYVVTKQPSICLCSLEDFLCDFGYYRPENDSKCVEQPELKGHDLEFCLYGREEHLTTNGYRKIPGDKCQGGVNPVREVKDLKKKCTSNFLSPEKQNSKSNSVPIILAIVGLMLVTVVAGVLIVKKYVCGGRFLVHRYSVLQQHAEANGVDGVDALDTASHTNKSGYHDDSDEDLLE", "assay": "Sortilin-mediated uptake in HT-29 cells (siRNA silencing and competition with Sortilin ligands)", "type": "cell-based", "details": "5 μM", "description": "FIG. 5 is a series of charts showing Sortilin-mediated uptake of KBC-201 in human colorectal cancer cells, FIG. 5A) Uptake of 5 μM of KBC-201 or free curcumin were performed at 37° C. in control (siScrambled) or Sortilin-deficient (siSortilin) HT-29 colorectal cancer cells. After a 2 h incubation, cells were trypsinized to remove non-internalized products, washed 3-times with ice-cold PBS and cell-associated fluorescence was quantified using a BD Accuri™ C6 flow cytometer. […] Cell-associated fluorescence uptake was quantified using a BD Accuri™ C6 flow cytometer.\n(§2) The uptake of Curcumin conjugate or free Curcumin was measured as a function of time in human HT-29 colon cancer cells (FIG. 4). […] Indeed, the Curcumin conjugate (KBC-201) is less fluorescent by about 2-3 folds when compared to free Curcumin. […] The uptake of both KBC-201 and free Curcumin was next measured in the presence of Sortilin ligands (FIG. 5B). […] Taken together, data of the pharmacological inhibition using Sortilin ligands and the silencing of Sortlin expression confirm that the Curcumin conjugate is internalized via a Sortilin-dependent mechanism."}, "[2]": {"system": "human HT-29 colorectal cancer cells", "assay": "Time-course uptake by flow cytometry (cell-associated fluorescence)", "type": "cell-based", "details": "5 μM, 37° C., HT-29 cells, FIG. 4B", "description": "FIG. 4 is a series of charts illustrating higher and sustained uptake of KBC-201 (FIG. 4A). At the same concentration (5 μM), KBC-201 generates about half the fluorescence compared to free curcumin (Ex.: 488 nm, Em.: 530 nm) (FIG. 4B). Time-course uptake of KBC-201 (full line) and free curcumin (dotted line) in human HT-29 colorectal cancer cells. HT-29 cells were incubated at 37° C. with 5 μM of KBC-201 or curcumin at various times, trypsinized, washed, and cell-associated fluorescence uptake was quantified using a BD Accuri™ C6 flow cytometer.\nas §2"}, "[3]": {"system": "TNF-α-induced IκB phosphorylation in human HT-29 colon cancer cells", "assay": "Inhibition of TNF-α-induced IκB phosphorylation in HT-29 cells", "type": "cell-based", "details": "24 h pre-treatment, 100 ng/mL TNF-α 5 min, HT-29, FIGS. 8 and 17; compared to Curcumin", "text": "FIG. 8A) Immunodetection of IκB phosphorylation by TNF-α is shown.\nOne of the inflammatory pathways induced by TNF-α leads to the phosphorylation of IkB (FIG. 1), a key protein in inflammation. As expected, the addition of TNF-α to human HT-29 colon cancer cells triggered the phosphorylation of IkB (pIkB) (FIG. 8).\nOne of the inflammatory pathways induced by TNF-α leads to the phosphorylation IkB (see FIG. 1), a key protein in inflammation. It was observed that the addition of TNF-α to human HT-29 colon cancer cells triggered the phosphorylation of IkB (pIkB) (FIGS. 17A and 17B)."}, "[4]": {"system": "TNF-α-induced COX-2 expression in human HT-29 colon cancer cells", "details": "2 h pre-treatment, 10 ng/mL TNF-α 24 h, HT-29, FIG. 6; compared to free Curcumin", "description": "(§3) Cells were pre-treated for 2 h with indicated compounds in serum-free medium before the addition of 10 ng/mL TNF-α for 24 h. Cells were lysed and the levels protein expression of COX-2 were monitored by immunoblotting. […] For each sample, the COX-2 level was corrected for GAPDH (a loading control) and normalized to those seen in TNF-α control (value=100%).\nas §3, with “the” for “the levels”, “expression levels” for “expression”"}, "[5]": {"assay": "Stability at room temperature followed by absorbance over time", "details": "FIG. 11", "text": "FIG. 11 is a graph showing absorbance of Curcumin conjugates and free Curcumin."}, "[6]": {"system": "TNF-α-induced NFκB phosphorylation in human MDA-MB231 breast cancer cells", "assay": "Inhibition of TNF-α-induced NFκB phosphorylation in MDA-MB231 cells", "type": "cell-based", "details": "24 h pre-treatment, 100 ng/mL TNF-α 5 min, MDA-MB231, FIGS. 9 and 18", "text": "FIG. 9A) Immunodetection of phosphorylated NFκB by TNF-α is shown.\nas §1\nResults presented in FIGS. 18A and 18B show now that the peptide alone (KBP-201) can reduce the TNF-α-induced NFκB phosphorylation by about 30%.\nIn FIG. 18A, immunodetection of NFκB phosphorylation by TNF-α is shown."}}, "note": "Entries after “also recorded” stand apart in the source; their conditions may differ."}
{"substance": "Acetyl-YK(curcumin)SLRRK(curcumin)APRWDAPLRDPALRQLL (YKSLRRKAPRWDAPLRDPALRQLL) [KBC-201]", "values": [{"measurement": "Antagonism of TNF-α-induced phosphorylation of pro-inflammatory proteins (IκB)", "setting": "[1]", "value": "more potent than free Curcumin"}, {"measurement": "Uptake when Sortilin expression is reduced by siRNA", "setting": "Sortilin receptor; 2 h, 37° C., siSortilin vs siScrambled HT-29 cells, FIG. 5A", "value": "strongly inhibited; also recorded: reduces KBC-201 uptake"}, {"measurement": "Uptake in the presence of Sortilin ligands", "setting": "Sortilin receptor; excess free peptide (50 μM), neurotensin (10 μM) or progranulin (1 nM), HT-29 cells, FIG. 5B", "value": "inhibited the uptake; also recorded: inhibit the uptake of KBC-201"}, {"measurement": "Uptake over time (cell-associated fluorescence)", "setting": "[2]", "value": "higher and sustained uptake over time"}, {"measurement": "Inhibition of TNF-α-induced IkB phosphorylation", "setting": "[3]", "value": "stronger inhibition"}, {"measurement": "Inhibition of TNFα-induced COX-2 expression", "setting": "[4]", "value": "stronger inhibition"}, {"measurement": "Stability (absorbance over time)", "setting": "[5]", "value": "more stable"}, {"measurement": "Antagonism of TNF-α-induced phosphorylation of pro-inflammatory proteins (NFκB)", "setting": "[6]", "value": "more potent than free Curcumin"}]}
